Read-outs that look alike come from different tables or passages of the source.
Experiments:
[1] = tested on: PPIs of the SKEMPI data set (by PDBID); details: ref SKEMPI, cited from earlier work; for sk_ddG_kJ (SKEMPI experimental ΔΔG) / sk_ddG_kJ (SKEMPI experimental ΔΔG, mutation to alanine) / sk_ddG_kJ: single mutation to alanine; for sk_ddG_kJ (SKEMPI experimental ΔΔG of binding, mutation to alanine): single mutation to alanine in the complex of the given PDBID; for sk_ddG_kJ (SKEMPI experimental ΔΔG, mutation to alanine) / sk_ddG_kJ: complex by PDBID; for sk_ddG_kJ (SKEMPI experimental ΔΔG, mutation to alanine): r_group DERKH; for sk_ddG_kJ: SKEMPI experimental ΔΔG of binding
[2] = tested on: PPIs of the SKEMPI data set (by PDBID); assay: SKEMPI experimental ΔΔG, single mutations to alanine; format: binding; details: for sk_class: class of the SKEMPI experimental ΔΔG
[3] = complex given by PDBID, mutation by mut_pdb
[4] = Positive / Neutral / Negative by ΔΔG threshold 4.184 kJ/mol, ref SKEMPI
[5] = class by the 4.184 kJ/mol threshold, r_group DERKH

## 1A22 SA55A
[1]; [3]
  sk_ddG_kJ (SKEMPI experimental ΔΔG): 0.46 kJ
[2]
  sk_class: Neutral (neutral (little effect) 4.184 kJ/mol < ΔΔG > −4.184 kJ/mol)

## 1A22 SA57A
[1]; [3]
  sk_ddG_kJ (SKEMPI experimental ΔΔG): 0.84 kJ
[2]
  sk_class: Neutral (neutral (little effect) 4.184 kJ/mol < ΔΔG > −4.184 kJ/mol)

## 1A22 SA62A
[1]; [3]
  sk_ddG_kJ (SKEMPI experimental ΔΔG): 0.42 kJ
[2]
  sk_class: Neutral (neutral (little effect) 4.184 kJ/mol < ΔΔG > −4.184 kJ/mol)

## 1A22 SA71A
[1]; [3]
  sk_ddG_kJ (SKEMPI experimental ΔΔG): 1.72 kJ
[2]
  sk_class: Neutral (neutral (little effect) 4.184 kJ/mol < ΔΔG > −4.184 kJ/mol)

## 1A22 SA184A
[1]; [3]
  sk_ddG_kJ (SKEMPI experimental ΔΔG): -0.21 kJ
[2]
  sk_class: Neutral (neutral (little effect) 4.184 kJ/mol < ΔΔG > −4.184 kJ/mol)

## 1A22 SA188A
[1]; [3]
  sk_ddG_kJ (SKEMPI experimental ΔΔG): -0.84 kJ
[2]
  sk_class: Neutral (neutral (little effect) 4.184 kJ/mol < ΔΔG > −4.184 kJ/mol)

## 1A22 TA175A
[1]; [3]
  sk_ddG_kJ (SKEMPI experimental ΔΔG): 8.37 kJ
[2]
  sk_class: Positive (positive (a hot residue) ΔΔG ≥ 4.184 kJ/mol)

## 1A22 VA180A
[1]
  sk_ddG_kJ (SKEMPI experimental ΔΔG of binding, mutation to alanine): 0.00 kJ
[2]; [4]
  sk_class (class of the SKEMPI experimental ΔΔG): Neutral (neutral (little effect) 4.184 kJ/mol < ΔΔG > −4.184 kJ/mol)

## 1A22 VA185A
[1]
  sk_ddG_kJ (SKEMPI experimental ΔΔG of binding, mutation to alanine): 3.64 kJ
[2]; [4]
  sk_class (class of the SKEMPI experimental ΔΔG): Neutral (neutral (little effect) 4.184 kJ/mol < ΔΔG > −4.184 kJ/mol)

## 1A22 YA42A
[1]
  sk_ddG_kJ (SKEMPI experimental ΔΔG of binding, mutation to alanine): 0.84 kJ
[2]; [4]
  sk_class (class of the SKEMPI experimental ΔΔG): Neutral (neutral (little effect) 4.184 kJ/mol < ΔΔG > −4.184 kJ/mol)

## 1A22 YA164A
[1]
  sk_ddG_kJ (SKEMPI experimental ΔΔG of binding, mutation to alanine): 1.26 kJ
[2]; [4]
  sk_class (class of the SKEMPI experimental ΔΔG): Neutral (neutral (little effect) 4.184 kJ/mol < ΔΔG > −4.184 kJ/mol)

## 1GC1 DC10A
[1]; sheet sortedByGroup
  sk_ddG_kJ (SKEMPI experimental ΔΔG, mutation to alanine): 0.00 kJ
[2]; [5]
  sk_class (class of the SKEMPI experimental ΔΔG): Neutral (neutral (little effect) 4.184 kJ/mol < ΔΔG > −4.184 kJ/mol)

## 1GC1 DC53A
[1]; sheet sortedByGroup
  sk_ddG_kJ (SKEMPI experimental ΔΔG, mutation to alanine): 1.26 kJ
[2]; [5]
  sk_class (class of the SKEMPI experimental ΔΔG): Neutral (neutral (little effect) 4.184 kJ/mol < ΔΔG > −4.184 kJ/mol)

## 1GC1 EC92A
[1]; sheet sortedByGroup
  sk_ddG_kJ (SKEMPI experimental ΔΔG, mutation to alanine): 0.08 kJ
[2]; [5]
  sk_class (class of the SKEMPI experimental ΔΔG): Neutral (neutral (little effect) 4.184 kJ/mol < ΔΔG > −4.184 kJ/mol)

## 1GC1 KC1A
[1]; sheet sortedByGroup
  sk_ddG_kJ (SKEMPI experimental ΔΔG, mutation to alanine): 0.25 kJ
[2]; [5]
  sk_class (class of the SKEMPI experimental ΔΔG): Neutral (neutral (little effect) 4.184 kJ/mol < ΔΔG > −4.184 kJ/mol)

## 1GC1 KC8A
[1]; sheet sortedByGroup
  sk_ddG_kJ (SKEMPI experimental ΔΔG, mutation to alanine): 0.46 kJ
[2]; [5]
  sk_class (class of the SKEMPI experimental ΔΔG): Neutral (neutral (little effect) 4.184 kJ/mol < ΔΔG > −4.184 kJ/mol)

## 1GC1 KC35A
[1]; sheet sortedByGroup
  sk_ddG_kJ (SKEMPI experimental ΔΔG, mutation to alanine): 1.34 kJ
[2]; [5]
  sk_class (class of the SKEMPI experimental ΔΔG): Neutral (neutral (little effect) 4.184 kJ/mol < ΔΔG > −4.184 kJ/mol)

## 1GC1 RC59A
[1]; sheet sortedByGroup
  sk_ddG_kJ (SKEMPI experimental ΔΔG, mutation to alanine): 4.94 kJ
[2]; [5]
  sk_class (class of the SKEMPI experimental ΔΔG): Positive (positive (a hot residue) ΔΔG ≥ 4.184 kJ/mol)

## 1GC1 VC86A
[1]; PPI given by PDBID, sheet sortedByGroup, r_group FAMILYVW
  sk_ddG_kJ (SKEMPI experimental ΔΔG): -0.29 kJ
[2]; class by ΔΔG threshold 4.184 kJ/mol, ref SKEMPI
  sk_class (class of SKEMPI experimental ΔΔG): Neutral (neutral (little effect) 4.184 kJ/mol < ΔΔG > −4.184 kJ/mol)

B1: 1DAN RU135A (protein, UniProt P13726 33-251, looked up, variant R135A)
extracellular domain: SGTTNTVAAYNLTWKSTNFKTILEWEPKPVNQVYTVQISTKSGDWKSKCFYTTDTECDLTDEIVKDVKQTYLARVFSYPAGNVESTGSAGEPLYENSPEFTPYLETNLGQPTIQSFEQVGTKVNVTVEDERTLVARNNTFLSLRDVFGKDLIYTLYYWKSSSSGKKTAKTNTNEFLIDVDKGENYCFSVQAVIPSRTVNRKSTDSPVECMGQEKGEFRE
modifications: extracellular domain
[1]
  sk_ddG_kJ: 2.18 kJ
[2]; ref SKEMPI
  sk_class: Neutral (neutral (little effect) 4.184 kJ/mol < ΔΔG > −4.184 kJ/mol)

B2: 1DAN DU145A (protein, UniProt P13726 33-251, looked up, variant D145A)
extracellular domain: SGTTNTVAAYNLTWKSTNFKTILEWEPKPVNQVYTVQISTKSGDWKSKCFYTTDTECDLTDEIVKDVKQTYLARVFSYPAGNVESTGSAGEPLYENSPEFTPYLETNLGQPTIQSFEQVGTKVNVTVEDERTLVRRNNTFLSLRAVFGKDLIYTLYYWKSSSSGKKTAKTNTNEFLIDVDKGENYCFSVQAVIPSRTVNRKSTDSPVECMGQEKGEFRE
modifications: extracellular domain
[1]
  sk_ddG_kJ: -0.04 kJ
[2]; ref SKEMPI
  sk_class: Neutral (neutral (little effect) 4.184 kJ/mol < ΔΔG > −4.184 kJ/mol)

B3: 1DAN RU136A (protein, UniProt P13726 33-251, looked up, variant R136A)
extracellular domain: SGTTNTVAAYNLTWKSTNFKTILEWEPKPVNQVYTVQISTKSGDWKSKCFYTTDTECDLTDEIVKDVKQTYLARVFSYPAGNVESTGSAGEPLYENSPEFTPYLETNLGQPTIQSFEQVGTKVNVTVEDERTLVRANNTFLSLRDVFGKDLIYTLYYWKSSSSGKKTAKTNTNEFLIDVDKGENYCFSVQAVIPSRTVNRKSTDSPVECMGQEKGEFRE
modifications: extracellular domain
[1]
  sk_ddG_kJ: -0.25 kJ
[2]; ref SKEMPI
  sk_class: Neutral (neutral (little effect) 4.184 kJ/mol < ΔΔG > −4.184 kJ/mol)

B4: 1DAN RU144A (protein, UniProt P13726 33-251, looked up, variant R144A)
extracellular domain: SGTTNTVAAYNLTWKSTNFKTILEWEPKPVNQVYTVQISTKSGDWKSKCFYTTDTECDLTDEIVKDVKQTYLARVFSYPAGNVESTGSAGEPLYENSPEFTPYLETNLGQPTIQSFEQVGTKVNVTVEDERTLVRRNNTFLSLADVFGKDLIYTLYYWKSSSSGKKTAKTNTNEFLIDVDKGENYCFSVQAVIPSRTVNRKSTDSPVECMGQEKGEFRE
modifications: extracellular domain
[1]
  sk_ddG_kJ: 0.00 kJ
[2]; ref SKEMPI
  sk_class: Neutral (neutral (little effect) 4.184 kJ/mol < ΔΔG > −4.184 kJ/mol)

B5: 1DAN KU169A (protein, UniProt P13726 33-251, looked up, variant K169A)
extracellular domain: SGTTNTVAAYNLTWKSTNFKTILEWEPKPVNQVYTVQISTKSGDWKSKCFYTTDTECDLTDEIVKDVKQTYLARVFSYPAGNVESTGSAGEPLYENSPEFTPYLETNLGQPTIQSFEQVGTKVNVTVEDERTLVRRNNTFLSLRDVFGKDLIYTLYYWKSSSSGKKTAATNTNEFLIDVDKGENYCFSVQAVIPSRTVNRKSTDSPVECMGQEKGEFRE
modifications: extracellular domain
[1]
  sk_ddG_kJ: 0.50 kJ
[2]; ref SKEMPI
  sk_class: Neutral (neutral (little effect) 4.184 kJ/mol < ΔΔG > −4.184 kJ/mol)

— PMC6804253, “Predicting and Experimentally Validating Hot-Spot Residues at Protein–Protein Interfaces” (ACS Chemical Biology, 2019)
